Test results as given in patent US6407104B1, “Pyrrolo[1,2-a]pyrazine spla2 inhibitor” (Shionogi & Co., Ltd., priority 1998, dated 2002).

Experiments:
[1] = biological target: T1, recombinant human secretory phospholipase A2 (Homo sapiens, UniProt P14555); test: Inhibition Test of Human Secretory Phospholipase A2 (chromogenic assay); assay type: biochemical; settings: sPLA2 50 ng/well, 40° C., 30 minutes, OD 405 nm, 96 well microtiterplate
T1 sequence (P14555 21-144): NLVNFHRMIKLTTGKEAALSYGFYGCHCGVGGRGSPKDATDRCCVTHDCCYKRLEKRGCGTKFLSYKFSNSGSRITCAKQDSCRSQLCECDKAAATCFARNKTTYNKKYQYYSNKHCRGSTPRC
Excerpt: Test Example: Inhibition Test of Human Secretory Phospholipase A2
In order to identify and evaluate an inhibitor of recombinant human secretory phospholipase A2, the following chromogenic assay is utilized. The assay herein has been applied for high volume screening wherein 96 well microtiterplate is used. A general explanation for such assay is described in “Analysis of Human Synovial Fluid Phospholipase A2 on Short Chain Phosphatidylcholine-Mixed Micelles: Development of a Spectrophotometric Assay Suitable for a Micortiterplate Reader” (Analytical Biochemistry, 204, pp 190-197, 1992 by Laure. J. Reynolds. Lori L. Hughes and Edward A. Dennis: the disclosure of which is incorporated herein for reference.
pH 7.5 (adjusted with NaOH)
pH 4.5 (adjusted with acetic acid)
1 mg of sPLA2 is dissolved in 1 ml of an enzyme buffer. Thereafter, the solution is maintained at 4° C.
In the assay, 5 μl of the solution is diluted with 1995 μl of the reaction buffer to be used.
198 mg of 5,5′-dithiobis-2-[…] (manufactured by Wako Pure Chemicals) is dissolved in 100 ml of H2O
H 7.5 (adjusted with NaOH)
100 mg of racemic 1,2-bis(heptanoylthio)-1,2-dideoxy-sn-glycero-3-phospholylcholine is dissolved in 1 ml of chloroform.
624.9 mg of Triton-X 100 is dissolved in the reaction buffer.
Enzyme Reaction: for 1 Plate of Microtiterplate
1) 0.106 ml of the substrate solution is put in a centrifugal tube, and nitrogen gas is jetted to remove the solvent. 0.54 ml of Triton-X 100 is added thereto, the mixture is stirred, thereafter it is sonified in a bath type sonification to dissolve. To the resulting product are added 17.8 ml of the reaction buffer and 0.46 ml of DTNB, and 0.18 ml each of the admixture is poured to wells of the 96 well microtiterplate.
2) 10 μl of a test compound (or solvent blank) are added in accordance with alignment of plates which has been previously set.
3) Incubation is effected at 40° C. for 15 minutes.
4) 20μl of an enzyme solution (sPLA2) which has been previously diluted (50 ng/well) are added to start reaction (40° C., 30 minutes).
5) Changes in absorbancy for 30 minutes are measured by a plate reader, and inhibition activity was calculated (OD: 405 nm).
6) IC50 was determined by plotting log concentration with respect to inhibition values within 10% to 90% inhibiting range.

| SMILES | IC50 [1] [µM] | melting point [°C] |
| --- | --- | --- |
| CCCCCOC(=O)COc1nc(C)cn2c(Cc3ccc(F)cc3)c(CC)c(C(=O)C(N)=O)c12 [Compound I-94] | 0.65 | 175 to 176 |
| CCc1c(C(=O)C(N)=O)c2c(OCC(=O)OCCN3CCOCC3)nc(C)cn2c1Cc1ccc(F)cc1 [Compound I-95] | 0.175 | 139 to 140 |
